According to US20260184701A1, “FIVE-MEMBERED HETEROARYL COMPOUND AND AGRICULTURAL AND HORTICULTURAL FUNGICIDE” (Nippon Soda Co., Ltd., priority 2022, published 2026):

What was measured:
Colletotrichum acutatum = assay: Fungicidal effect test against fungus causing apple anthracnose (spore suspension, turbidity); assay type: cell-based; settings: 96 h, 25 ppm by volume, Czapek medium, 25° C., four days
Glomerella cingulata = assay: Fungicidal effect test against fungi causing grape ripe rot disease (spore suspension, turbidity); assay type: cell-based; settings: Colletotrichum gloeosporioides, 72 h; 25 ppm by volume; Vogel medium; 25° C., three days
Botrytis cinerea = assay: Control test of cucumber gray mold (sprayed young cucumber seedlings, inoculated); settings: in Cucumis sativus, 96 h, read-out: control value
Method: Water was added to the emulsion to obtain a drug liquid in which the concentration of the five-membered heteroaryl compound according to the present invention reached a predetermined concentration. Then, the drug liquid was sprayed onto young cucumber seedlings cultivated in a nursery pot (variety “Jihai”-based, cotyledon stage), and then air-dried. […] They were left still in a moist room at 20° C.

Row | SMILES | inhibition of growth at 25 ppm (Colletotrichum acutatum) [%] | inhibition of growth at 25 ppm (Glomerella cingulata) [%] | pest or weed control at 25 ppm (Botrytis cinerea) [%] | pest or weed control at 125 ppm (Botrytis cinerea) [%]
1 | C=C/C(=C\C=C\C)CCN/C(=N\OC)c1c(Oc2cccc(Br)c2)cnn1C [a-2] | ≥ 75 | ≥ 75 | ≥ 75 | –
2 | Cc1ccc(CC2CON=C(c3c(Oc4cccc(C5CC5)c4)cnn3C)N2)c(C)c1 (stereo not drawn) [a-3] | ≥ 75 | ≥ 75 | – | ≥ 75
3 | C=C(C)/C(=C\C=C\C)CC(CON)NCc1c(Oc2ccc(Br)cc2)cnn1C (stereo not drawn) [a-5] | ≥ 75 | ≥ 75 | – | –
4 | CO/N=C(\NCCC1CC=C(C)C=C1C)c1c(Oc2ccc(C3CC3)cc2)cnn1C (stereo not drawn) [a-6] | – | ≥ 75 | – | –
5 | Cc1ccc(Oc2cnn(C)c2C2=NOCC(Cc3ccc(C)cc3C)N2)cc1 (stereo not drawn) [a-7] | ≥ 75 | ≥ 75 | – | –
6 | CO/N=C(\NCCc1ccc(C)cc1)c1c(Oc2cccc(I)c2)cnn1C [a-8] | ≥ 75 | ≥ 75 | – | ≥ 75
7 | CCc1cccc(Oc2cnn(C)c2C2=NOCC(Cc3ccc(C)cc3C)N2)c1 (stereo not drawn) [a-10, 5-(2,4-dimethylbenzyl)-3-(4-(3-ethylphenoxy)-1-methyl-1H-pyrazol-5-yl)-5,6-dihydro-4H-1,2,4-oxadiazine] | ≥ 75 | ≥ 75 | – | –
8 | Cc1cccc(Oc2nnn(C)c2C2=NOCC(Cc3ccc(C)cc3C)N2)c1 (stereo not drawn) [a-12] | ≥ 75 | ≥ 75 | ≥ 75 | ≥ 75
9 | CO/N=C(\NCCc1ccc(C)cc1)c1c(Oc2ccc(Cl)c(C)c2)nnn1C [a-13] | ≥ 75 | ≥ 75 | – | –
10 | CO/N=C(\NCCc1ccc(C)cc1C)c1c(Oc2cccc(C(F)(F)F)c2F)nnn1C [a-16] | ≥ 75 | ≥ 75 | – | –
11 | C/C=C(C)\C=C(\C)CCCN/C(=N\OC)c1c(Oc2cccc(Cl)c2)cnn1C [a-17] | ≥ 75 | ≥ 75 | – | –
12 | Cc1cccc(Oc2c(Cl)nn(C)c2C2NOCC(Cc3ccc(C)cc3C)N2)c1 (stereo not drawn) [a-18] | ≥ 75 | ≥ 75 | – | –
13 | C/C=C(C)\C=C(\C)CCC1CON=C(c2c(Oc3cccc(Br)c3F)cnn2C)N1 (stereo not drawn) [a-19] | ≥ 75 | ≥ 75 | – | –
14 | CCn1ncc(Oc2cccc(C)c2)c1CNC(CON)Cc1ccc(C)cc1C (stereo not drawn) [a-20] | ≥ 75 | ≥ 75 | – | –
15 | C/C=C(Cl)\C=C(\Cl)CCC1CON=C(c2c(Oc3cccc(C)c3)cnn2CC)N1 (stereo not drawn) [a-21] | ≥ 75 | ≥ 75 | – | –
16 | C=C/C(=C\C=C\Br)CCN/C(=N\OC)c1c(Oc2cccc(C)c2)cnn1CC [a-22] | ≥ 75 | ≥ 75 | – | –
17 | CO/N=C(\NCCc1ccc(Br)cc1)c1c(Oc2cccc(C)c2)cnn1C [a-23] | ≥ 75 | ≥ 75 | – | –
18 | Cc1ccc(CC2CON=C(c3c(Oc4cccc(Br)c4)cnn3CC(F)(F)F)N2)cc1 (stereo not drawn) [a-24] | ≥ 75 | ≥ 75 | – | –
19 | Cn1ncc(Oc2cccc(C(F)(F)F)c2)c1C1=NOCC(c2cccs2)N1 (stereo not drawn) [a-25, 3-(1-methyl-4-(3-(trifluoromethyl)phenoxy)-1H-pyrazol-5-yl)-5-(thiophen-2-yl)-5,6-dihydro-4H-1,2,4-oxadiazine] | – | ≥ 75 | – | –
20 | Cc1ccc(C2CON=C(c3c(Oc4cccc(C(F)(F)F)c4)cnn3C)N2)s1 (stereo not drawn) [a-26, 3-(1-methyl-4-(3-(trifluoromethyl)phenoxy)-1H-pyrazol-5-yl)-5-(5-methylthiophen-2-yl)-5,6-dihydro-4H-1,2,4-oxadiazine] | ≥ 75 | ≥ 75 | – | –
21 | C=C/C(=C\C=C\C)CC1CON=C(c2c(Oc3cccc(C)c3)cnn2C(C)C)N1 (stereo not drawn) [a-27] | ≥ 75 | ≥ 75 | ≥ 75 | ≥ 75
22 | Cc1cc(C2CON=C(c3c(Oc4cccc(C(F)(F)F)c4)cnn3C)N2)c(C)s1 (stereo not drawn) [a-28] | ≥ 75 | ≥ 75 | – | –
23 | Cc1ccc(C(CON)NCc2c(Oc3cccc(C(F)(F)F)c3)cnn2C)o1 (stereo not drawn) [a-29] | – | ≥ 75 | – | –
24 | CCn1nc(Cl)c(Oc2cccc(C(F)(F)F)c2)c1C1=NOCC(Cc2ccc(C)cc2C)N1 (stereo not drawn) [a-30, 3-(3-chloro-1-ethyl-4-(3-(trifluoromethyl)phenoxy)-1H-pyrazol-5-yl)-5-(2,4-dimethylbenzyl)-5,6-dihydro-4H-1,2,4-oxadiazine] | ≥ 75 | ≥ 75 | ≥ 75 | ≥ 75
25 | C=C/C(=C\C=C\C)CC1CON=C(c2c(Oc3cccc(C)c3)c(C)nn2C)N1 (stereo not drawn) [a-31] | ≥ 75 | ≥ 75 | – | –
26 | CO/N=C(\NCCc1ccc(C)cc1C)c1c(Oc2cccc(C#N)c2)cnn1C [a-33] | ≥ 75 | ≥ 75 | – | –
27 | C/C=C(C#N)\C=C(\C)CCC1CON=C(c2c(Oc3cccc(C)c3)cnn2C)N1 (stereo not drawn) [a-34] | ≥ 75 | ≥ 75 | – | ≥ 75
28 | C/C=C/c1ccc(CC2CON=C(c3c(Oc4cccc(C)c4)cnn3C)N2)c(C)c1 (stereo not drawn) [a-35] | ≥ 75 | ≥ 75 | – | –
